According to ChEMBL document CHEMBL5579900, “Enhanced Recognition Memory through Dual Modulation of Brain Carbonic Anhydrases and Cholinesterases” (J Med Chem, 2024):

Experiments:
[1] = target: Carbonic anhydrase 4 (Homo sapiens) (UniProt P22748)
Description: Binding affinity to human carbonic anhydrase 4 assessed as activation constant by phenol red dye based stopped-flow method

[2] = target: Carbonic anhydrase 5B, mitochondrial (Homo sapiens) (UniProt Q9Y2D0)
Description: Binding affinity to human carbonic anhydrase 5B assessed as activation constant by phenol red dye based stopped-flow method

Cholinesterase = Cholinesterase (Equus caballus, UniProt P81908)
Description: Inhibition of equine serum BuChE by microplate reader based analysis

[3] = target: Carbonic anhydrase 2 (Homo sapiens) (UniProt P00918)
Description: Binding affinity to human carbonic anhydrase 2 assessed as activation constant by phenol red dye based stopped-flow method

Acetylcholinesterase = Acetylcholinesterase (Electrophorus electricus, UniProt O42275)
Description: Inhibition of electric eel AChE by microplate reader based analysis

[4] = target: Carbonic anhydrase 1 (Homo sapiens) (UniProt P00915)
Description: Binding affinity to human carbonic anhydrase 1 assessed as activation constant by phenol red dye based stopped-flow method

[5] = target: Carbonic anhydrase 7 (Homo sapiens) (UniProt P43166)
Chain of Carbonic anhydrase 7 (Homo sapiens) (P43166 whole entry): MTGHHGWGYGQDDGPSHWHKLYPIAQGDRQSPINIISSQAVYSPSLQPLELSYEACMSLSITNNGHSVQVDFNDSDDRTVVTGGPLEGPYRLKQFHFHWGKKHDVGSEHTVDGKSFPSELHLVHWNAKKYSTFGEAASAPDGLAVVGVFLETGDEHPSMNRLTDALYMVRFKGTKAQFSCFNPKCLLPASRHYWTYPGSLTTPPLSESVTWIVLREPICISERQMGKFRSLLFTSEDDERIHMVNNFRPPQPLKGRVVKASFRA
Description: Binding affinity to human carbonic anhydrase 7 assessed as activation constant by phenol red dye based stopped-flow method

Chain of Carbonic anhydrase 4 (Homo sapiens) (P22748 whole entry): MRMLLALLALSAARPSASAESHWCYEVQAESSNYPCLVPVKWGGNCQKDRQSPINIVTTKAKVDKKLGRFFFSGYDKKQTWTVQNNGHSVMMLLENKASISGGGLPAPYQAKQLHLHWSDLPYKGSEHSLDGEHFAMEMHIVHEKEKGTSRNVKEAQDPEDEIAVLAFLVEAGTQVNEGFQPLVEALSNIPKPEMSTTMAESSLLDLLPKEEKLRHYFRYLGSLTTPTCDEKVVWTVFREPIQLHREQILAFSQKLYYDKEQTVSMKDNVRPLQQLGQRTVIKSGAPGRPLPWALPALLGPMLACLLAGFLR
Chain of Cholinesterase (P81908 whole entry): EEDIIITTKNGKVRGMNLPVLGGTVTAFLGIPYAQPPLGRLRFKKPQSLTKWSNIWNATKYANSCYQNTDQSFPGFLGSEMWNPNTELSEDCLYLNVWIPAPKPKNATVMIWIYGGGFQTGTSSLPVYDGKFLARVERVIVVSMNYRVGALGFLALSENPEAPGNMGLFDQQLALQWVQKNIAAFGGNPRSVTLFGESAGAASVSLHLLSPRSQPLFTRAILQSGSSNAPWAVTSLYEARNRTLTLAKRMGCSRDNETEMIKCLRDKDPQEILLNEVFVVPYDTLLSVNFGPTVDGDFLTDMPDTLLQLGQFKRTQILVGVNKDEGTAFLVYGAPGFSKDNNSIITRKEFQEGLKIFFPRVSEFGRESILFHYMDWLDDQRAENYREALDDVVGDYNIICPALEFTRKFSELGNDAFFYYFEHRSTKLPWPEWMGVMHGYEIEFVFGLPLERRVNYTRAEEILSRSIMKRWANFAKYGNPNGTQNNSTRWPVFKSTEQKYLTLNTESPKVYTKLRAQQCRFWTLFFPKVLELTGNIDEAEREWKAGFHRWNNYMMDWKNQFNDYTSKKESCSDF
Chain of Carbonic anhydrase 1 (Homo sapiens) (P00915 2-261 limits assumed): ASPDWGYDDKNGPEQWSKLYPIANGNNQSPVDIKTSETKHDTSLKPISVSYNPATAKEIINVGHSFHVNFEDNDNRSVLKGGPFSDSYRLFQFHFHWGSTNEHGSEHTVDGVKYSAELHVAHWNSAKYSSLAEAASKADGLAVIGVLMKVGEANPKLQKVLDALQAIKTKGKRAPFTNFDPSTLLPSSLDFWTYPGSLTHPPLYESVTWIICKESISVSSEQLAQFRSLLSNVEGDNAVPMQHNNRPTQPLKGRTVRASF
Chain of Acetylcholinesterase (O42275 whole entry): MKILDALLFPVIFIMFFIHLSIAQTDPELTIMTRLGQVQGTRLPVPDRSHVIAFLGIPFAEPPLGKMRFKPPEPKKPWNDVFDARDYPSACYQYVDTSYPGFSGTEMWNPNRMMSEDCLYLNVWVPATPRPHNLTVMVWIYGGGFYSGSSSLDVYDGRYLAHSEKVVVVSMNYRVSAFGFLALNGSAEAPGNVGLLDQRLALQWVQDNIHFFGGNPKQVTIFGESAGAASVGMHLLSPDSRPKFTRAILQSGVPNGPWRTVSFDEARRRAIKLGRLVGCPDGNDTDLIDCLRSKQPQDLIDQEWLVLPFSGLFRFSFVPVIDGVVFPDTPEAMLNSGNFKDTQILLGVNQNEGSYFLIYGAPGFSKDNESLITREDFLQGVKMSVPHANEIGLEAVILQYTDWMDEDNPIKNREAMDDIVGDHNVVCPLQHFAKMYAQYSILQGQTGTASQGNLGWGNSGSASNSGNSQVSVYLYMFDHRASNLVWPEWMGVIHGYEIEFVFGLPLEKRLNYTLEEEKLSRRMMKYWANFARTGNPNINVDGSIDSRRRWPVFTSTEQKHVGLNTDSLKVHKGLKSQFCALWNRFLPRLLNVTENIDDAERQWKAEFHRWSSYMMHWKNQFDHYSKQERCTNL
Chain of Carbonic anhydrase 5B, mitochondrial (Homo sapiens) (Q9Y2D0 whole entry): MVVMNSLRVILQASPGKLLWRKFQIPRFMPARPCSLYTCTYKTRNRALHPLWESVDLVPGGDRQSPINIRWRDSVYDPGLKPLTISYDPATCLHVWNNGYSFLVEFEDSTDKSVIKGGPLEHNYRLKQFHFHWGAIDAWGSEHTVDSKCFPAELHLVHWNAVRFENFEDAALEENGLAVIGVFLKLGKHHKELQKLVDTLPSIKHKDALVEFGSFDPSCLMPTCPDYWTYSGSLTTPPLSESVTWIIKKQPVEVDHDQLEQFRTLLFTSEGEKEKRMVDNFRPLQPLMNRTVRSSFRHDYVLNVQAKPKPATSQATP

| SMILES | KA ([1]; filed as activator) | KA ([2]; filed as activator) | IC50 (Cholinesterase) | KA ([3]; filed as activator) | IC50 (Acetylcholinesterase) | KA ([4]; filed as activator) | KA ([5]; filed as activator) | KA [1] | KA [2] | KA [3] | KA [4] | KA [5] |
| --- | --- | --- | --- | --- | --- | --- | --- | --- | --- | --- | --- | --- |
| CC(C)(C)OC(=O)N[C@@H](Cc1c[nH]c2ccccc12)C(=O)NCCCCCCNc1c2c(nc3ccccc13)CCCC2 | 4.46 µM | 24200 nM | 0.26 nM | 2660 nM | 15.9 nM | 1120 nM | 1130 nM | – | – | – | – | – |
| CC(C)(C)OC(=O)N[C@@H](Cc1ccccc1)C(=O)NCCCCCNc1c2c(nc3ccccc13)CCCC2 | – | – | 0.34 nM | – | 243 nM | – | – | > 50 µM | > 50000 nM | > 50000 nM | > 50000 nM | > 50000 nM |
| CC(C)(C)OC(=O)N[C@@H](Cc1ccccc1)C(=O)NCCCCCCNc1c2c(nc3ccccc13)CCCC2 | – | – | 0.091 nM | – | 9.9 nM | – | – | > 50 µM | > 50000 nM | > 50000 nM | > 50000 nM | > 50000 nM |
| N[C@@H](Cc1c[nH]c2ccccc12)C(=O)NCCCCCNc1c2c(nc3ccccc13)CCCC2 | 1.72 µM | 936 nM | 1 nM | 119 nM | 37.8 nM | 630 nM | 105 nM | – | – | – | – | – |
| COC(=O)[C@H](Cc1ccc(OCCCCCCNc2c3c(nc4ccccc24)CCCC3)cc1)NC(=O)OC(C)(C)C | – | – | 0.11 nM | – | 16 nM | – | – | > 50 µM | > 50000 nM | > 50000 nM | > 50000 nM | > 50000 nM |
| N[C@@H](Cc1c[nH]c2ccccc12)C(=O)NCCCCCCNc1c2c(nc3ccccc13)CCCC2 | 0.541 µM | 353 nM | 1.2 nM | 539 nM | 2.4 nM | 876 nM | 79.8 nM | – | – | – | – | – |
| CC(C)(C)OC(=O)N[C@@H](CCCCNC(=O)OCc1ccccc1)C(=O)NCCCCCNc1c2c(nc3ccccc13)CCCC2 | – | – | 0.34 nM | – | 299 nM | – | – | > 50 µM | > 50000 nM | > 50000 nM | > 50000 nM | > 50000 nM |
| CC(C)(C)OC(=O)N[C@@H](Cc1c[nH]c2ccccc12)C(=O)NCCCCCNc1c2c(nc3ccccc13)CCCC2 | 5.67 µM | 7150 nM | 0.22 nM | 2940 nM | 108 nM | 1010 nM | 1020 nM | – | – | – | – | – |
| N[C@@H](Cc1c[nH]c2ccccc12)C(=O)NCCCNc1c2c(nc3ccccc13)CCCC2 | 2.33 µM | 1960 nM | 1.6 nM | 833 nM | 58.9 nM | 1010 nM | 566 nM | – | – | – | – | – |
| N[C@@H](Cc1c[nH]cn1)C(=O)NCCCCNc1c2c(nc3ccccc13)CCCC2 | 0.958 µM | 1470 nM | 4.1 nM | 199 nM | 101 nM | 972 nM | 391 nM | – | – | – | – | – |
| COC(=O)[C@H](Cc1c[nH]cn1)NCCCCCNc1c2c(nc3ccccc13)CCCC2 | 3.65 µM | 2430 nM | 4.4 nM | 175 nM | 143 nM | 311 nM | 211 nM | – | – | – | – | – |
| N[C@@H](Cc1c[nH]cn1)C(=O)NCCCCCCNc1c2c(nc3ccccc13)CCCC2 | 3.56 µM | 554 nM | 5.2 nM | 283 nM | 12.1 nM | 1050 nM | 82.8 nM | – | – | – | – | – |
| CC(C)(C)OC(=O)N[C@@H](CCCCNC(=O)OCc1ccccc1)C(=O)NCCCCNc1c2c(nc3ccccc13)CCCC2 | – | – | 0.16 nM | – | 327 nM | – | – | > 50 µM | > 50000 nM | > 50000 nM | > 50000 nM | > 50000 nM |
| COC(=O)[C@H](CCCCNC(=O)OCc1ccccc1)NCCCCCCNc1c2c(nc3ccccc13)CCCC2 | 20.2 µM | 4610 nM | 0.29 nM | 2410 nM | 35.6 nM | 2280 nM | 2250 nM | – | – | – | – | – |
| COC(=O)[C@@H](N)Cc1ccc(OCCCCCNc2c3c(nc4ccccc24)CCCC3)cc1 | 16.8 µM | 1730 nM | 0.048 nM | 372 nM | 22.1 nM | 552 nM | 803 nM | – | – | – | – | – |
| COC(=O)[C@H](CCCCNC(=O)OCc1ccccc1)NCCCCCNc1c2c(nc3ccccc13)CCCC2 | 19 µM | 1400 nM | 0.073 nM | 1990 nM | 12.4 nM | 3300 nM | 1370 nM | – | – | – | – | – |
| N[C@@H](Cc1c[nH]c2ccccc12)C(=O)NCCCCNc1c2c(nc3ccccc13)CCCC2 | 3.12 µM | 703 nM | 2.4 nM | 413 nM | 145 nM | 542 nM | 289 nM | – | – | – | – | – |
| N[C@@H](Cc1ccccc1)C(=O)NCCCNc1c2c(nc3ccccc13)CCCC2 | 5.85 µM | 971 nM | 0.22 nM | 726 nM | 239 nM | 893 nM | 491 nM | – | – | – | – | – |
| COC(=O)[C@H](Cc1c[nH]c2ccccc12)NCCCCCCNc1c2c(nc3ccccc13)CCCC2 | 2.23 µM | 5100 nM | 2.8 nM | 631 nM | 23.3 nM | 436 nM | 637 nM | – | – | – | – | – |
| c1ccc2c(NCCCCCCNCCc3c[nH]cn3)c3c(nc2c1)CCCC3 | 2.28 µM | 500 nM | 2 nM | 102 nM | 2.2 nM | 236 nM | 386 nM | – | – | – | – | – |
| COC(=O)[C@H](Cc1ccccc1)NCCCCCCNc1c2c(nc3ccccc13)CCCC2 | 1.45 µM | 5170 nM | 0.21 nM | 312 nM | 21.8 nM | 992 nM | 397 nM | – | – | – | – | – |
| COC(=O)[C@H](Cc1ccc(OCCCCCNc2c3c(nc4ccccc24)CCCC3)cc1)NC(=O)OC(C)(C)C | – | – | > 15.3 nM | – | 65.4 nM | – | – | > 50 µM | > 50000 nM | > 50000 nM | > 50000 nM | > 50000 nM |
| CC(C)(C)OC(=O)N[C@@H](Cc1ccccc1)C(=O)NCCCNc1c2c(nc3ccccc13)CCCC2 | – | – | 0.16 nM | – | 202 nM | – | – | > 50 µM | > 50000 nM | > 50000 nM | > 50000 nM | > 50000 nM |
| N[C@@H](Cc1c[nH]cn1)C(=O)NCCCNc1c2c(nc3ccccc13)CCCC2 | 0.619 µM | 1860 nM | 5.8 nM | 376 nM | 119 nM | 581 nM | 281 nM | – | – | – | – | – |
| c1ccc2c(NCCCCCNCCc3c[nH]cn3)c3c(nc2c1)CCCC3 | 1.28 µM | 541 nM | 2.4 nM | 290 nM | 60.2 nM | 439 nM | 439 nM | – | – | – | – | – |
| CC(C)(C)OC(=O)N[C@@H](Cc1ccccc1)C(=O)NCCCCNc1c2c(nc3ccccc13)CCCC2 | – | – | 0.38 nM | – | 158 nM | – | – | > 50 µM | > 50000 nM | > 50000 nM | > 50000 nM | > 50000 nM |
| N[C@@H](Cc1ccccc1)C(=O)NCCCCNc1c2c(nc3ccccc13)CCCC2 | 7.62 µM | 4790 nM | 9.5 nM | 565 nM | 465 nM | 432 nM | 433 nM | – | – | – | – | – |
| NCCc1c[nH]cn1 | 25 µM | 3500 nM | – | – | – | 2100 nM | 37000 nM | – | – | > 100000 nM | – | – |
| N[C@@H](Cc1ccccc1)C(=O)NCCCCCCNc1c2c(nc3ccccc13)CCCC2 | 4.78 µM | 4640 nM | 2.7 nM | 157 nM | 78 nM | 481 nM | 160 nM | – | – | – | – | – |
